Test results reported in patent publication US5929056A, “Vitamin D compounds and method of preparing these compounds” (Duphar International Research B.V., priority 1994, dated 1999).

How the values were obtained:
[1] = system: human leukemic cell line HL-60; experiment: Cell differentiation in HL-60 assay (NBT reduction); format: cell-based; conditions: for concentration of optimum differentiating effect / NBT-reduction inducing capacity relative to the known 1α,25-DHCC: HL-60 cells; for concentration of optimum differentiating effect / induction of differentiation and maturation of HL-60 cells: NBT reduction; for induction of differentiation and maturation of HL-60 cells: 10^-12 to 10^-6 M; for NBT-reduction inducing capacity relative to the known 1α,25-DHCC: FIGS. 2 and 3, potency ratio versus 1α,25-DHCC
Description: Vitamin D compounds according to the invention are dissolved in ethanol in concentrations ranging from 10^-12 to 10^-6 M and tested for their capacity to induce cell differentiation in a HL-60 assay. In this assay, biochemical examination of the human leukemic cell line HL-60 is done, in order to establish whether cell differentiation has taken place.
Differentiation is expressed as the maturation parameter nitroblue tetrazolium (NBT) reduction. After culturing with the known 1α,25-DHCC or with vitamin D compounds of the invention, the percentage of cells containing black formazan deposits is determined. An increase in the percentage of NBT reducing cells indicates an increase in cell differentiation.

[2] = target: T1, calf thymus intracellular vitamin D receptor (VDR) (Bos taurus, UniProt Q28037); experiment: Affinity to intracellular vitamin D receptor (displacement of 3H-1α,25-DHCC); format: binding; conditions: 10^-13 to 10^-7 M, compared with 1α,25-dihydroxycholecalciferol
T1 sequence (Q28037 1-426): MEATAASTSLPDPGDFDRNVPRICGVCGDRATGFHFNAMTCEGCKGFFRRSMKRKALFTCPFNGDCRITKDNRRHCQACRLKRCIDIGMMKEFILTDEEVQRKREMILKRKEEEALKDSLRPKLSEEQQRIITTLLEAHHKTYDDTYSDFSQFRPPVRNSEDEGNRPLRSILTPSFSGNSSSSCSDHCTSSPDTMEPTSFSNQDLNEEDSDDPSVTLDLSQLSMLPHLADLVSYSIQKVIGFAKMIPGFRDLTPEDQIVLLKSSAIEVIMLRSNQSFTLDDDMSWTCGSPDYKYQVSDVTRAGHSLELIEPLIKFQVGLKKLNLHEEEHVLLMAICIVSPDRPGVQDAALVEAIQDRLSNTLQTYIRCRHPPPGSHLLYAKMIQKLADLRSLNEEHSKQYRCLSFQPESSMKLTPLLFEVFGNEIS
From the text: Affinity to intracellular vitamin D receptor.
In this assay, ^3 H-1α,25-dihydroxycholecalciferol (^3 H-1α,25-DHCC), which is specifically bound to the VDR, is replaced by the tested compounds. […] A high VDR-affinity is indicative for a biologically active substance. The tested compounds 21 and 28 have moderate VDR-affinities, whereas tested compound 36 has a weak VDR-affinity.

[3] = target: T2, human vitamin D binding protein (DBP) (Homo sapiens, UniProt P02774); experiment: Affinity to vitamin D binding protein (competition with 3H-1α,25-DHCC); conditions: DBP purified from total human serum; 10^-11 to 2.5×10^-6 M; compared to 1α,25-DHCC; FIG. 1
T2 construct: pooled Gc allotypes not specified
T2 sequence (P02774 17-474): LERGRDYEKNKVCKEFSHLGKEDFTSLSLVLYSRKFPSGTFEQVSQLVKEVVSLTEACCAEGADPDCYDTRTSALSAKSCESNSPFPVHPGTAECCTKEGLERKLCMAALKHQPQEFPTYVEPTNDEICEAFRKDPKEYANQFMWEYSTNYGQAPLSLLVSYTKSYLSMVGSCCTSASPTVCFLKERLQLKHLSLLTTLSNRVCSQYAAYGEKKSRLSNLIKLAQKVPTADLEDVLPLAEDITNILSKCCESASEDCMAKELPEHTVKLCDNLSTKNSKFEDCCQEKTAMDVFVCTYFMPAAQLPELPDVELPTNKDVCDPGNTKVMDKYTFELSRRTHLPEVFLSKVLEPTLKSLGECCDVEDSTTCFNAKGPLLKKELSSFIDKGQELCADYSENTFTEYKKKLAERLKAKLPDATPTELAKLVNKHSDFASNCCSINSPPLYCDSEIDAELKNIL
From the text: Affinity to vitamin D binding protein.
Vitamin D binding protein (DBP) is the specific carrier for vitamin D and its metabolites in blood. The biological activity of vitamin D compounds depends on their binding to DBP, because strong binding to DBP will reduce the intracellular access to the VDR. Binding to the DBP may also influence the half-life of the vitamin D derivatives in circulation. Weak binders are rapidly metabolized, which is a favourable aspect in topical application.
In the assay, DBP is incubated with ^3 H-1α,25-DHCC and 1α,25-DHCC or with several vitamin D compounds according to the invention. To this purpose, the vitamin compounds are dissolved in ethanol in concentrations ranging from 10^-11 to 2.5×10^-6 M. The percentage bound/unbound ^3 H-1α,25-DHCC is then calculated. DBP is purified from total human serum. The results are shown in the appended FIG. 1. […] [^3 H]1α,25(OH)2 D3 =^3 H-1α,25-DHCC; in the Figure .cndot.=1α,25-DHCC (known compound); .quadrature.=compound 21; Δ=compound 28; o=compound 32 and .diamond.=compound 36.

VDR-affinity [2] | binding to the DBP [3] | Compound | concentration of optimum differentiating effect [1] | induction of differentiation and maturation of HL-60 cells [1] | NBT-reduction inducing capacity relative to the known 1α,25-DHCC [1]
 |  | C=C1/C(=C\C=C2/CCC[C@]3(C)[C@@H]([C@H](C)CCCC(C)(C)O)CC[C@@H]23)C[C@@H](O)C[C@@H]1O [1α,25-DHCC, 1α,25-dihydroxycholecalciferol, reference compound] | 10^-8 to 10^-7 M | induce differentiation and maturation | 
moderate | rather weakly | C=C1/C(=C\C=C2/CCC[C@]3(C)/C(=C\CCCC(C)(C)O)CC[C@@H]23)C[C@@H](O)C[C@@H]1O [compound 21] | 10^-8 to 10^-7 M | induce differentiation and maturation | 3-5 times
moderate | rather weakly | C=C1/C(=C\C=C2/CCC[C@]3(C)/C(=C/CCCC(C)(C)O)CC[C@@H]23)C[C@@H](O)C[C@@H]1O [compound 28] | 10^-8 to 10^-7 M | induce differentiation and maturation | as potent as the known 1α,25-DHCC
high | rather weakly | C=C1/C(=C\C=C2/CCC[C@@]3(C)[C@H]2CC[C@@]32C[C@@H]2CCCC(C)(C)O)C[C@@H](O)C[C@@H]1O [compound 32] | 10^-8 to 10^-7 M | induce differentiation and maturation | 3-5 times
weak | rather weakly | C=C1/C(=C\C=C2/CCC[C@@]3(C)[C@H]2CC[C@@]32C[C@H]2CCCC(C)(C)O)C[C@@H](O)C[C@@H]1O [compound 36] | 10^-8 to 10^-7 M | induce differentiation and maturation | about 10 times
